Experimental data reported in paper PMC10141580, “Cyclic Dichalcogenides Extend the Reach of Bioreductive Prodrugs to Harness Thiol/Disulfide Oxidoreductases: Applications to seco-Duocarmycins Targeting the Thioredoxin System” (ACS Central Science, 2023).
“And” between values parts separate entries of the source, which are not always exact repeats. Equal values may be shown once. Read-outs that look alike come from different tables or passages of the source.

System: panel of 140 standard cancer cell lines
Experiment: ProliFiler-140 cancer cell line screen (CellTiterGlo, 72 h)
Type: cell-based
Description: Incubations were performed for 72 h before automated viability readout with CellTiterGlo (Figure 8).
End of Figure S11 (part 5 of 5): ProliFiler-140 cancer cell line screening for cytotoxicity of the prodrugs.
8-data-point dose response curves from CellTiter-Glo® viability readout.
ProliFiler-140 cell line panel part V

COc1cc2cc(C(=O)N3C[C@@H](CCl)c4c3cc(OC(=O)N3CCN(C(=O)CCC(=O)N5CCN(C)CC5)[C@H]5CSSC[C@H]53)c3ccccc43)[nH]c2c(OC)c1OC [P-SS66C-CBI-TMI]
Reductive Activation Index (KG-1 a (Blood)): 5.16 | Reductive Activation Index (Kato III (Stomach)): 7.4 | Reductive Activation Index (LN229 (Brain)): 5.44 | IC50 (LOU-NH91, read-out: IC50 [M] (ProliFiler-140), LOU-NH91 (Lung)): 3.5e-08 M | Reductive Activation Index (LnCap (Prostate)): 33 | Reductive Activation Index (M07e (Blood)): 4.26 | IC50 (M-07e, read-out: IC50 [M] (ProliFiler-140), M07e (Blood)): 3.25e-08 M | Reductive Activation Index (MCAS (Ovary)): 5.9 and 5.91 | Reductive Activation Index (MDA MB 231 (Breast)): 5.44 | Reductive Activation Index (MDA MB 435 (Skin)): 8.6 | IC50 (MDA MB 435 (Skin); read-out: IC50 [M] (ProliFiler-140)): 1.26e-07 M | Reductive Activation Index (MKN-1 (Stomach)): 11.1 | Reductive Activation Index (MKN-45 (Stomach)): 5.93 | Reductive Activation Index (Mia PaCA 2 (Pancreas)): 4.38 | Reductive Activation Index (NALM-6 (Blood)): 22.62 and 23 | Reductive Activation Index (NCI-H82 (Lung)): 8.5 | Reductive Activation Index (NCI-H441 (Lung)): 5.81 | Reductive Activation Index (NCI-H838 (Lung)): 10 | Reductive Activation Index (NCI-H1563 (Lung)): 15 | Reductive Activation Index (NCI-H1573 (Lung)): 12 | Reductive Activation Index (NCI-H1703 (Lung)): 16 | Reductive Activation Index (NCI-H1838 (Lung)): 11 | IC50 (NCI-H2110, read-out: IC50 [M] (ProliFiler-140), NCI-H2110 (Lung)): 1.8e-08 M | Reductive Activation Index (NCI-N87 (Stomach)): 15 | Reductive Activation Index (OCI-AML5 (Blood)): 5.7 and 5.67 | Reductive Activation Index (OCI-LY19 (Blood)): 5.41 | Reductive Activation Index (OPM-2 (Blood)): 25.37 | Reductive Activation Index (OV56 (Ovary)): 2.79 | IC50 (OV56, read-out: IC50 [M] (ProliFiler-140), OV56 (Ovary)): 7.25e-08 M | Reductive Activation Index (OVCAR-3 (Ovary)): 13 | Reductive Activation Index (OVK18 (Ovary)): 4.38 | IC50 (OVK18, read-out: IC50 [M] (ProliFiler-140), OVK18 (Ovary)): 4.57e-08 M | Reductive Activation Index (PANC-1 (Pancreas)): 6.9 | Reductive Activation Index (RERF-LC-Ad2 (Lung)): 5.5 and 5.54 | IC50 (RERF-LC-Ad2, read-out: IC50 [M] (ProliFiler-140), RERF-LC-Ad2 (Lung)): 1.4e-07 M | Reductive Activation Index (RL95-2 (Endometrium)): 5.93 | Reductive Activation Index (SCLC-21H (Lung)): 6.16 | Reductive Activation Index (SJSA-1 (Bone)): 3.87 | Reductive Activation Index (SK-MEL-3 (Skin)): 6.6 | Reductive Activation Index (SK-N-FI (Brain)): 4.91 | Reductive Activation Index (SK-N-SH (Brain)): 6.5 | Reductive Activation Index (SNU840 (Ovary)): 1.11 | Reductive Activation Index (SNU-216 (Stomach)): 19.98 and 20 | IC50 (SNU-216, read-out: IC50 [M] (ProliFiler-140), SNU-216 (Stomach)): 9.22e-08 M | IC50 (SNU-840, read-out: IC50 [M] (ProliFiler-140), SNU840 (Ovary)): 6.29e-08 M | Reductive Activation Index (SU-DHL-5 (Blood)): 19 and 19.50 | Reductive Activation Index (SW480 (Colon)): 6.01 | Reductive Activation Index (SW620 (Colon)): 4.55 | Reductive Activation Index (SW948 (Colon)): 4.75 | Reductive Activation Index (Saos-2 EC (Bone)): 3.52 | Reductive Activation Index (SiHa (Ovary)): 5.41 | Reductive Activation Index (T84 (Colon)): 5.69 and 5.7 | Reductive Activation Index (T-47D (Breast)): 11 | Reductive Activation Index (U2OS (Bone)): 4.10 | Reductive Activation Index (U87MG (Brain)): 8.0 | Reductive Activation Index (U118MG (Brain)): 2.11 | Reductive Activation Index (U251MG (Brain)): 17 | Reductive Activation Index (U-937 (Blood)): 6.40 | Reductive Activation Index (ZR-75-1 (Breast)): 4.62 and 4.6 | IC50 (read-out: IC50 [M] (ProliFiler-140), BEN (Lung)): 5.3e-08 M | IC50 (read-out: IC50 [M] (ProliFiler-140), H4 (Brain)): 1.39e-08 M | IC50 (read-out: IC50 [M] (ProliFiler-140), Hep3B2.1-7 (Liver)): 1.7e-07 M | IC50 (read-out: IC50 [M] (ProliFiler-140), J82 (Bladder)): 9.55e-08 M | IC50 (read-out: IC50 [M] (ProliFiler-140), KG-1 (Blood)): 1.92e-07 M | IC50 (read-out: IC50 [M] (ProliFiler-140), LP-1 (Blood)): 1e-07 M | IC50 (read-out: IC50 [M] (ProliFiler-140), MCAS (Ovary)): 1.4e-07 M | IC50 (read-out: IC50 [M] (ProliFiler-140), PC3 (Prostate)): 4.01e-08 M | IC50 (read-out: IC50 [M] (ProliFiler-140), PC-9 (Lung)): 1.4e-08 M | IC50 (read-out: IC50 [M] (ProliFiler-140), RERF-LC-MS (Lung)): 3.07e-08 M | IC50 (read-out: IC50 [M] (ProliFiler-140), RKO (Colon)): 2.13e-08 M | IC50 (read-out: IC50 [M] (ProliFiler-140), SCH (Stomach)): 1.5e-08 M | IC50 (read-out: IC50 [M] (ProliFiler-140), T84 (Colon)): 1.6e-07 M | IC50 (read-out: IC50 [M] (ProliFiler-140); 786-O (Kidney)): 2.9e-08 M | IC50 (read-out: IC50 [M] (ProliFiler-140); A375 (Skin)): 5.5e-08 M | IC50 (read-out: IC50 [M] (ProliFiler-140); A427 (Lung)): 4.42e-08 M | IC50 (read-out: IC50 [M] (ProliFiler-140); A431 (Skin)): 2e-08 M | IC50 (read-out: IC50 [M] (ProliFiler-140); A498 (Kidney)): 9.4e-08 M | IC50 (read-out: IC50 [M] (ProliFiler-140); A549 (Lung)): 3.03e-08 M | IC50 (read-out: IC50 [M] (ProliFiler-140); A2058 (Skin)): 1.09e-08 M | IC50 (read-out: IC50 [M] (ProliFiler-140); A2780 (Ovary)): 8.13e-09 M | IC50 (read-out: IC50 [M] (ProliFiler-140); AsPC-1 (Pancreas)): 2.62e-07 M | IC50 (read-out: IC50 [M] (ProliFiler-140); BEN (Lung)): 5.35e-08 M | IC50 (read-out: IC50 [M] (ProliFiler-140); BT-20 (Breast)): 1.22e-07 M
